According to PubChem BioAssay AID1259333 (Broad Institute, 2017):
Activity calls are given as the source filed them. No rule for the calls is given here; tested in parental BL2 cells.

These compounds were tested on cytotoxicity, CellTiter-Glo ATP luminescence (assay: loss of cell viability by ATP content – CellTiter-Glo, cytotoxicity control, dose response (AID 1259333)).

Row | SMILES | AC50
1 | COc1c(O)cc2oc3cc(O)c(CC=C(C)C)c(O)c3c(=O)c2c1CC=C(C)C | 6.98 µM
2 | CC(=O)O[C@H]1C[C@H](O[C@H]2[C@@H](O)C[C@H](O[C@H]3[C@@H](O)C[C@H](O[C@H]4CC[C@@]5(C)C(CCC6C5C[C@@H](O)[C@]5(C)[C@@H](C7=CC(=O)OC7)CC[C@]65O)C4)O[C@@H]3C)O[C@@H]2C)O[C@H](C)[C@H]1O[C@@H]1O[C@H](CO)[C@@H](O)[C@H](O)[C@H]1O (some centres undefined) | 0.758 µM
3 | COc1ccc2c(c1)c1ncn(Cc3ccccn3)c(=O)c1n2C | > 20 µM (inactive)
4 | Cc1ccc(CN2CC(C(=O)Nc3ncc(C)s3)CC2=O)cc1 (centres undefined) | > 20 µM (inactive)
5 | COc1ccc(/C=C2/CCC(CN3CCOCC3)C2=O)cc1 (centres undefined) | 7.4 µM
6 | COc1cc(C(C)C)c2c(c1)S(=O)(=O)N(COc1cc(=O)n3cccc(OCCN4CCCCC4)c3n1)C2=O | 10.5 µM
7 | CC[N+]1(C)CCC(O)(c2ccc(OC)cc2)C(C(=O)c2ccc(OC)cc2)C1 (centres undefined) | 5.1 µM
8 | C[C@H](CO)N1C[C@H](C)[C@H](CN(C)C(=O)Nc2cccc(Cl)c2Cl)OCc2ccccc2-c2c(n(C)c3ccccc23)C1=O | 2.51 µM
9 | CC(=O)OCC12CC(OC(=O)CC(C)C)C(C)=CC1OC1C(O)C(OC(C)=O)C2(C)C12CO2 (centres undefined) | 3.67 µM
10 | COc1ccc(/C=C/C(=O)Nc2ccccc2C(=O)O)cc1OC | > 20 µM (inactive)
11 | CC1CC(C)C(=O)C(C(O)CC2CC(=O)NC(=O)C2)C1 (centres undefined) | > 20 µM (inactive)
12 | c1ccc2nc(-c3nc4ccccc4o3)ccc2c1 | > 20 µM (inactive)
13 | C[C@@H]1CN([C@H](C)CO)C(=O)c2ccccc2-c2ccccc2CO[C@@H]1CN(C)C(=O)c1cc(Cl)cc(Cl)c1 | 8.71 µM
14 | CNC(=S)NN=C(C)CCCC(C)=NNC(=S)NC | 10.3 µM
15 | CC1CC(C)C(=NNC(N)=O)C(C(O)CC2CCC(=O)NC2=O)C1 (centres undefined) | > 20 µM (inactive)
16 | C[C@@H]1CCCCO[C@@H](CN(C)S(=O)(=O)c2ccc(Cl)cc2)[C@H](C)CN([C@H](C)CO)C(=O)c2cc(NC(=O)Nc3ccc(C(F)(F)F)cc3)ccc2O1 | 6.61 µM
17 | CCCNC(=O)N1[C@@H](C#N)[C@H](c2ccc(-c3cccc(OC)c3)cc2)[C@@H]1CO | > 20 µM (inactive)
18 | Cc1cc(C(=O)COC(=O)c2ccco2)c(C)n1Cc1ccco1 | > 20 µM (inactive)
19 | NCCOc1ccc(C23CC4CC(CC(C4)C2)C3)cc1 | 4.9 µM
20 | N#C[C@H]1[C@H](c2ccc(C#CC3CCCCC3)cc2)[C@H](CO)N1C(=O)Nc1ccc(F)cc1 | > 20 µM (inactive)
21 | CC(C)(C)OC(=O)CC(S(=O)(=O)c1ccccc1)S(=O)(=O)c1ccccc1 | 6.37 µM

Row | SMILES | AC50
22 | Cc1ccc2c(=O)c3ccccc3n(CCCN)c2c1C | 2.79 µM
23 | COc1cc(/C=N/n2cnnc2)ccc1OC(=O)c1ccncc1 | 8.07 µM
24 | C[C@@H]1CN([C@H](C)CO)C(=O)c2c(c3ccccc3n2C)-c2ccccc2CO[C@@H]1CN(C)C(=O)c1cc(Cl)cc(Cl)c1 | 9.93 µM
25 | COc1ccc(CC2C(=O)NC(C)C(=O)N(C)C3C(=O)N(C)C(Cc4ccc(O)c(c4)Oc4ccc(cc4)C3O)C(=O)NC(C)C(=O)NC(C)C(=O)N2C)cc1 (centres undefined) | 8.5 µM
26 | COc1ccccc1C(=O)Nc1ccc2c(c1)C(=O)N(C)[C@H]1CC[C@H](CC(=O)Nc3cccc(C(C)C)c3)O[C@@H]1CO2 | > 20 µM (inactive)
27 | O=C(Nc1ccccn1)c1ccc(-c2ccccc2)cc1 | > 20 µM (inactive)
28 | C[C@@H]1CN([C@H](C)CO)C(=O)c2ccccc2-c2ccccc2CO[C@@H]1CN(C)Cc1ccccc1C(F)(F)F | 6.93 µM
29 | C[C@H](CO)N1C[C@H](C)[C@H](CN(C)CC2CCCCC2)OCCCC[C@H](C)Oc2ccc(NC(=O)Nc3ccc(C(F)(F)F)cc3)cc2C1=O | > 20 µM (inactive)
30 | C[n+]1c2n(c3ccccc31)N=C(c1ccc(-c3ccccc3)cc1)CS2 | 6.3 µM
31 | c1cc(-c2cnn3cc(-c4ccc(OCCN5CCCCC5)cc4)cnc23)ccn1 | 1.44 µM
32 | CC1=C(C#N)c2nc(N)c(C#N)c(C)c2/C1=C\c1ccccc1 | 8.93 µM
33 | CC(=O)OC1CC2(O)C3CCC4CC(O)CCC4(C)C3CCC2(C)C1C1=CC(=O)OC1 (centres undefined) | 0.559 µM
34 | N#C[C@@H]1[C@H](c2ccc(C#CC3CCCC3)cc2)[C@@H](CO)N1C(=O)Nc1ccc(F)cc1 | > 20 µM (inactive)
35 | COc1ccc(CNCCC(c2ccc(F)cc2)c2ccc(OC(C)C)cc2)cc1OC (centres undefined) | 5.85 µM
36 | Clc1ccc(CSC(Cn2ccnc2)c2ccc(Cl)cc2Cl)cc1 (centres undefined) | > 20 µM (inactive)
37 | N#C[C@@H]1[C@H](c2ccc(C#CC3CCCCC3)cc2)[C@H](CO)N1C(=O)Nc1ccc(F)cc1 | > 20 µM (inactive)
38 | COc1ccc(C[C@H]2NC[C@H](O)[C@H]2OC(C)=O)cc1 | 2.75 µM
39 | COc1c(-c2coc3cc4c(cc3c2=O)CC(O)C(C)(C)O4)ccc2c1C=CC(C)(C)O2 (centres undefined) | > 20 µM (inactive)
40 | C[C@@H]1CCCCO[C@H](CN(C)Cc2ccc(C(F)(F)F)cc2)[C@@H](C)CN([C@@H](C)CO)C(=O)c2cc(NC(=O)Nc3cccc4ccccc34)ccc2O1 | 10.7 µM
41 | COc1cc(C(=O)CCN2CCC(c3ccccc3)C2)cc(OC)c1OC (centres undefined) | 7.27 µM
42 | O=C(Nc1ccccc1)N1CC(=O)N2[C@H](CO)[C@@H](c3ccc(C#CC4CCCCC4)cc3)[C@H]2C1 | > 20 µM (inactive)

Row | SMILES | AC50
43 | N#C[C@H]1[C@H](c2ccc(C#Cc3ccccc3F)cc2)[C@@H](CO)N1C(=O)c1cccnc1 | 11.2 µM
44 | CC(=O)OC1C(=O)OCC23CCC4(C)OC4C2OC2CC(OC(=O)C=CC=CC(=O)OCCC1C)C3(C)C21CO1 (centres undefined) | > 7 µM (inactive)
45 | Cn1cc(C2=C(c3cn(CCCSC(=N)N)c4ccccc34)C(=O)NC2=O)c2ccccc21 | 0.388 µM
46 | Cn1cnc([N+](=O)[O-])c1S(=O)(=O)Oc1cccc2ccccc12 | 1.91 µM
47 | CN(C)c1ccc(C=c2c3cc(O)ccc3n3c2cc(-c2ccccc2)[n+]3C)cc1 | 10.8 µM
48 | C[C@@H]1CN([C@H](C)CO)C(=O)c2cc(NC(=O)Nc3cccc4ccccc34)ccc2O[C@@H](C)CCCCO[C@H]1CN(C)Cc1ccc(C(F)(F)F)cc1 | > 20 µM (inactive)
49 | CC1CC(C)(O)CC(C(O)CC2CC(=O)NC(=O)C2)C1=O (centres undefined) | 7.54 µM
50 | O=C(Nc1cccc(N2C(=O)C=CC2=O)c1)c1cccs1 | 2.26 µM
51 | COC(=O)C1=C(C(=O)OC)C2OC1c1cc3ccccc3cc12 | 2.65 µM
52 | Cc1noc(C)c1S(=O)(=O)N(C)C[C@H]1OCc2ccccc2-c2c(n(C)c3ccccc23)C(=O)N([C@@H](C)CO)C[C@H]1C | 10.1 µM
53 | COc1cccc(NC(=O)N2CC(=O)N3[C@H](CO)[C@@H](c4ccc(C#CCC5CCCC5)cc4)[C@H]3C2)c1 | 4.13 µM
54 | CC1OC(OC2C(O)CC(OC3C(O)CC(OC4CCC5(C)C(CCC6C5CCC5(C)C(C7=CC(=O)OC7)C(O)CC65O)C4)OC3C)OC2C)CC(O)C1O (centres undefined) | 0.625 µM
55 | N#C[C@@H]1[C@H](c2ccc(C#CC3CCCCC3)cc2)[C@@H](CO)N1C(=O)Nc1ccc(F)cc1 | > 20 µM (inactive)
56 | Clc1ccc(COC(Cn2ccnc2)c2ccc(Cl)cc2Cl)c(Cl)c1 (centres undefined) | 8.13 µM
57 | O=C1NC2C(=CC(O)C(O)C2O)c2cc3c(c(O)c21)OCO3 (centres undefined) | 10 µM
58 | N#C[C@@H]1[C@H](c2ccc(C#CC3CCCCC3)cc2)[C@@H](CO)N1S(=O)(=O)c1ccccc1 | 7.22 µM
59 | COc1ccc(S(=O)(=O)Nc2ccc3c(c2)C(=O)N([C@H](C)CO)C[C@H](C)[C@@H](CN(C)Cc2ccc(C(F)(F)F)cc2)OCCCC[C@@H](C)O3)cc1 | 10.5 µM
60 | COC(=O)C[C@](O)(CCCC(C)(C)O)C(=O)O[C@@H]1C(OC)=C[C@]23CCCN2CCc2cc4c(cc2[C@H]13)OCO4 | > 20 µM (inactive)
61 | C[C@@H]1CN([C@@H](C)CO)C(=O)c2ccccc2-c2ccccc2CO[C@H]1CN(C)Cc1ccccc1C(F)(F)F | 7.28 µM
62 | C[C@@H]1CN([C@H](C)CO)C(=O)c2c(c3ccccc3n2C)-c2ccccc2CO[C@H]1CN(C)Cc1cccc(C(F)(F)F)c1 | > 20 µM (inactive)
63 | Cc1noc(C)c1S(=O)(=O)Nc1ccc2c(c1)C(=O)N([C@H](C)CO)C[C@H](C)[C@@H](CN(C)C(=O)Nc1cccc3ccccc13)OCCCC[C@H](C)O2 | > 20 µM (inactive)

Row | SMILES | AC50
64 | CC(C)C#Cc1ccc([C@H]2[C@@H](CO)N(C(=O)c3ccccn3)[C@H]2C#N)cc1 | > 20 µM (inactive)
65 | CC[C@@]1(O)C(=O)OCc2c1cc1n(c2=O)Cc2cc3ccccc3nc2-1 | 9.41 µM
66 | C[C@H]1O[C@@H](O[C@H]2[C@@H](O)C[C@H](O[C@H]3[C@@H](O)C[C@H](O[C@H]4CC[C@]5(C)C6C[C@@H](O)[C@]7(C)[C@@H](C8=CC(=O)OC8)CC[C@]7(O)C6CC[C@@H]5C4)O[C@@H]3C)O[C@@H]2C)C[C@H](O)[C@@H]1O (some centres undefined) | 2.71 µM
67 | CC(C)=CCc1c2c(c3occ(-c4ccc(O)c(O)c4)c(=O)c3c1O)C=CC(C)(C)O2 | 5.55 µM
68 | Cc1ccsc1C(=O)OCC(=O)c1cc(C)n(CC2CCCO2)c1C (centres undefined) | > 20 µM (inactive)
69 | CC(C)CCCCCCCCCCCCC(=O)NCC(=O)NC1C(O)C(O)C(Nc2ncnc3nc[nH]c23)OC1C(O)CO (centres undefined) | 9.02 µM
70 | CC(C)[C@H](CO)Nc1nc(Nc2cccc(Cl)c2)c2ncn(C(C)C)c2n1 | 2.86 µM
71 | CCS(=O)(=O)N1Cc2ccccc2CC1C(=O)Nc1nc2ccccc2s1 (centres undefined) | 5.74 µM
72 | Oc1c(Cl)cc(Cl)c(Cl)c1Cc1c(O)c(Cl)cc(Cl)c1Cl | 10.2 µM
73 | CC1OC(OC2CC(O)C3(CO)C4C(O)CC5(C)C(C6=CC(=O)OC6)CCC5(O)C4CCC3(O)C2)C(O)C(O)C1O (centres undefined) | 0.236 µM
74 | O=C(Nc1ccc([N+](=O)[O-])cc1Cl)c1cc(Cl)ccc1O | > 7 µM (inactive)
75 | CC(C)NC(=O)N1CC(=O)N2[C@H](CO)[C@@H](c3ccc(/C=C/c4ccccc4)cc3)[C@H]2C1 | > 20 µM (inactive)
76 | COc1cccc(-c2cc(=O)c3cc(OC)ccc3o2)c1 | 10.3 µM
77 | CC1=NNC(=O)C1Br (centres undefined) | 9.62 µM
78 | COc1ccc(S(=O)(=O)Nc2ccc3c(c2)C(=O)N([C@@H](C)CO)C[C@H](C)[C@H](CN(C)Cc2ccc(C(F)(F)F)cc2)OCCCC[C@H](C)O3)cc1 | > 20 µM (inactive)
79 | C1CCC(C(CC2CCCCN2)C2CCCCC2)CC1 (centres undefined) | 2.37 µM
80 | OC(CCN1CCCCC1)c1ccc(-c2ccccc2)cc1 (centres undefined) | > 20 µM (inactive)
81 | COC(=O)c1ccc2nc(NC(=O)C(C)(C)C)sc2c1 | 7.83 µM
82 | N#C[C@@H]1[C@H](c2ccc(C#CC3CCCC3)cc2)[C@H](CO)N1C(=O)Cc1ccccn1 | > 20 µM (inactive)
83 | OC1CC2CCC(C1)N2CCCN1c2ccccc2Sc2ccc(Cl)cc21 (centres undefined) | 10.6 µM
84 | CC(=O)NCCCC(=O)NC(CCC(=O)OCc1ccccc1)C(=O)OCc1ccccc1 (centres undefined) | 9.31 µM
